PubChem BioAssay (NCI)
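GI50 = concentration required for 50% inhibition of growth. The concentration for full growth arrest is given as TGI.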

Columns and labels:
Assay in all cases: growth of human tumour cells (NCI), 384-well format
786-0 renal = test system: 786-0 renal
A498 renal = test system: A498 renal
A549 NSCLC = test system: A549 NSCLC
ACHN renal = test system: ACHN renal
BT-549 breast = test system: BT-549 breast
CAKI-1 renal = test system: CAKI-1 renal
CCRF-CEM leukemia = test system: CCRF-CEM leukemia
COLO 205 colon = test system: COLO 205 colon
DU-145 prostate = test system: DU-145 prostate
EKVX NSCLC = test system: EKVX NSCLC
HCC-2998 colon = test system: HCC-2998 colon
HCT-15 colon = test system: HCT-15 colon
HL-60(TB) leukemia = test system: HL-60(TB) leukemia
HOP-62 NSCLC = test system: HOP-62 NSCLC
HOP-92 NSCLC = test system: HOP-92 NSCLC
HS 578T breast = test system: HS 578T breast
HT29 colon = test system: HT29 colon
IGROV1 ovarian = test system: IGROV1 ovarian
K-562 leukemia = test system: K-562 leukemia
KM12 colon = test system: KM12 colon
LOX IMVI melanoma = test system: LOX IMVI melanoma
M14 melanoma = test system: M14 melanoma
MALME-3M melanoma = test system: MALME-3M melanoma
MCF7 breast = test system: MCF7 breast
MDA-MB-231 breast = test system: MDA-MB-231 breast
MDA-MB-435 melanoma = test system: MDA-MB-435 melanoma
MDA-MB-468 breast = test system: MDA-MB-468 breast
MOLT-4 leukemia = test system: MOLT-4 leukemia
NCI-H226 lung = test system: NCI-H226 lung
NCI-H23 lung = test system: NCI-H23 lung
NCI-H322M lung = test system: NCI-H322M lung
NCI-H460 NSCLC = test system: NCI-H460 NSCLC
NCI-H522 lung = test system: NCI-H522 lung
NCI/ADR-RES ovarian = test system: NCI/ADR-RES ovarian
OVCAR-3 ovarian = test system: OVCAR-3 ovarian
OVCAR-4 ovarian = test system: OVCAR-4 ovarian
OVCAR-5 ovarian = test system: OVCAR-5 ovarian
OVCAR-8 ovarian = test system: OVCAR-8 ovarian
PC-3 prostate = test system: PC-3 prostate
RPMI-8226 leukemia = test system: RPMI-8226 leukemia
RXF 393 renal = test system: RXF 393 renal
SF-268 CNS = test system: SF-268 CNS
SF-295 CNS = test system: SF-295 CNS
SF-539 CNS = test system: SF-539 CNS
SK-MEL-28 melanoma = test system: SK-MEL-28 melanoma
SK-MEL-5 melanoma = test system: SK-MEL-5 melanoma
SK-OV-3 ovarian = test system: SK-OV-3 ovarian
SN12C renal = test system: SN12C renal
SNB-19 CNS = test system: SNB-19 CNS
SNB-75 CNS = test system: SNB-75 CNS
SR leukemia = test system: SR leukemia
SW-620 colon = test system: SW-620 colon
T-47D breast = test system: T-47D breast
TK-10 renal = test system: TK-10 renal
U251 glioblastoma = test system: U251 glioblastoma
UACC-257 melanoma = test system: UACC-257 melanoma
UACC-62 melanoma = test system: UACC-62 melanoma
UO-31 renal = test system: UO-31 renal

SMILES: Cc1ccc(NC(=O)c2ccc(CN3CCN(C)CC3)cc2)cc1Nc1nc(-c2cccnc2)cs1
- GI50 ([…]-0 renal): 1.79 µM
- TGI (786-0 renal): 3.66 µM
- GI50 (A498 renal): 2.42 µM
- TGI (A498 renal): 5.52 µM
- GI50 (A549 NSCLC): 5.25 µM
- TGI (A549 NSCLC): 17.3 µM
- GI50 (ACHN renal): 3.31 µM
- TGI (ACHN renal): 9.96 µM
- GI50 (BT-549 breast): 4.12 µM
- TGI (BT-549 breast): 14.4 µM
- GI50 (CAKI-1 renal): 3.9 µM
- TGI (CAKI-1 renal): 13 µM
- GI50 (CCRF-CEM leukemia): 1.54 µM
- TGI (CCRF-CEM leukemia): 3.09 µM
- GI50 (COLO 205 colon): 3.64 µM
- TGI (COLO 205 colon): 11 µM
- GI50 (DU-145 prostate): 12 µM
- TGI (DU-145 prostate): 24.4 µM
- GI50 (EKVX NSCLC): 4.22 µM
- TGI (EKVX NSCLC): 15.4 µM
- GI50 (HCC-2998 colon): 1.84 µM
- TGI (HCC-2998 colon): 3.68 µM
- GI50 (HCT-15 colon): 1.69 µM
- TGI (HCT-15 colon): 3.2 µM
- GI50 (HL-60(TB) leukemia): 1.74 µM
- TGI (HL-60(TB) leukemia): 3.16 µM
- GI50 (HOP-62 NSCLC): 4.31 µM
- TGI (HOP-62 NSCLC): 15.4 µM
- GI50 (HOP-92 NSCLC): 3.33 µM
- TGI (HOP-92 NSCLC): 12.2 µM
- GI50 (HS 578T breast): 1.73 µM
- TGI (HS 578T breast): 3.87 µM
- GI50 (HT29 colon): 1.72 µM
- TGI (HT29 colon): 3.32 µM
- GI50 (IGROV1 ovarian): 11.2 µM
- TGI (IGROV1 ovarian): 23.3 µM
- GI50 (K-562 leukemia): 0.283 µM
- TGI (K-562 leukemia): 1.12 µM
- GI50 (KM12 colon): 3.11 µM
- TGI (KM12 colon): 10.3 µM
- GI50 (LOX IMVI melanoma): 1.91 µM
- TGI (LOX IMVI melanoma): 3.52 µM
- GI50 (M14 melanoma): 2.07 µM
- TGI (M14 melanoma): 4.11 µM
- GI50 (MALME-3M melanoma): 1.64 µM
- TGI (MALME-3M melanoma): 3.16 µM
- GI50 (MCF7 breast): 1.94 µM
- TGI (MCF7 breast): 5.95 µM
- GI50 (MDA-MB-231 breast): 3.38 µM
- TGI (MDA-MB-231 breast): 11.7 µM
- GI50 (MDA-MB-435 melanoma): 6.47 µM
- TGI (MDA-MB-435 melanoma): 18.9 µM
- GI50 (MDA-MB-468 breast): 1.65 µM
- TGI (MDA-MB-468 breast): 3.77 µM
- GI50 (MOLT-4 leukemia): 1.55 µM
- TGI (MOLT-4 leukemia): 2.95 µM
- GI50 (NCI-H226 lung): 3.84 µM
- TGI (NCI-H226 lung): 15.9 µM
- GI50 (NCI-H23 lung): 2.9 µM
- TGI (NCI-H23 lung): 11.9 µM
- GI50 (NCI-H322M lung): 3.39 µM
- TGI (NCI-H322M lung): 11.4 µM
- GI50 (NCI-H460 NSCLC): 2.16 µM
- TGI (NCI-H460 NSCLC): 4.71 µM
- GI50 (NCI-H522 lung): 3.83 µM
- TGI (NCI-H522 lung): 13.9 µM
- GI50 (NCI/ADR-RES ovarian): 5.47 µM
- TGI (NCI/ADR-RES ovarian): 16.6 µM
- GI50 (OVCAR-3 ovarian): 2.24 µM
- TGI (OVCAR-3 ovarian): 5.16 µM
- GI50 (OVCAR-4 ovarian): 2.59 µM
- TGI (OVCAR-4 ovarian): 11.1 µM
- GI50 (OVCAR-5 ovarian): 3.4 µM
- TGI (OVCAR-5 ovarian): 9.15 µM
- GI50 (OVCAR-8 ovarian): 3.54 µM
- TGI (OVCAR-8 ovarian): 12.5 µM
- GI50 (PC-3 prostate): 3.25 µM
- TGI (PC-3 prostate): 9.72 µM
- GI50 (RPMI-8226 leukemia): 1.42 µM
- TGI (RPMI-8226 leukemia): 2.78 µM
- GI50 (RXF 393 renal): 1.54 µM
- TGI (RXF 393 renal): 2.98 µM
- GI50 (SF-268 CNS): 4.08 µM
- TGI (SF-268 CNS): 14 µM
- GI50 (SF-295 CNS): 1.84 µM
- TGI (SF-295 CNS): 3.32 µM
- GI50 (SF-539 CNS): 1.5 µM
- TGI (SF-539 CNS): 3.19 µM
- GI50 (SK-MEL-28 melanoma): 1.91 µM
- TGI (SK-MEL-28 melanoma): 3.42 µM
- GI50 (SK-MEL-5 melanoma): 1.55 µM
- TGI (SK-MEL-5 melanoma): 3.15 µM
- GI50 (SK-OV-3 ovarian): 3.89 µM
- TGI (SK-OV-3 ovarian): 12.3 µM
- GI50 (SN12C renal): 12.7 µM
- TGI (SN12C renal): 25.3 µM
- GI50 (SNB-19 CNS): 10.6 µM
- TGI (SNB-19 CNS): 22.5 µM
- GI50 (SNB-75 CNS): 3.7 µM
- TGI (SNB-75 CNS): 12 µM
- GI50 (SR leukemia): 1.53 µM
- TGI (SR leukemia): 2.87 µM
- GI50 (SW-620 colon): 2.17 µM
- TGI (SW-620 colon): 5.13 µM
- GI50 (T-47D breast): 1.76 µM
- TGI (T-47D breast): 5.2 µM
- GI50 (TK-10 renal): 12.2 µM
- TGI (TK-10 renal): 24.7 µM
- GI50 (U251 glioblastoma): 2.36 µM
- TGI (U251 glioblastoma): 5.39 µM
- GI50 (UACC-257 melanoma): 1.82 µM
- TGI (UACC-257 melanoma): 3.37 µM
- GI50 (UACC-62 melanoma): 1.75 µM
- TGI (UACC-62 melanoma): 3.64 µM
- GI50 (UO-31 renal): 5.43 µM
- TGI (UO-31 renal): 17.4 µM
